# Marks after values point to notes of the source that are not given here. Non-standard residues stand in square brackets, D forms with d. Residues, ends and D or L forms follow the SMILES beside them. dPhe(3,4-F2) = N[C@H](Cc1ccc(F)c(F)c1)C(=O)O; d2Nal = N[C@H](Cc1ccc2ccccc2c1)C(=O)O
# Key:
# [1] = test system: Bacillus subtilis ATCC 6633; assay type: cell-based
# Method in brief: (§1)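 The assay follows US Clinical and Laboratory Standards Institute rules: a serial twofold microdilution of each peptide against each organism gives the MIC. Experiments were carried out five times side by side.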
# [2] = test system: Candida albicans ATCC MYA-2876; assay type: cell-based
# Method in brief: as §1
# [3] = test system: Candida glabrata ATCC 15126; assay type: cell-based
# Method in brief: as §1
# [4] = test system: Candida krusei ATCC 6258; assay type: cell-based
# Method in brief: as §1
# [5] = test system: Candida tropicalis ATCC 750; assay type: cell-based
# Method in brief: as §1
# [6] = test system: Candida utilis ATCC 9950; assay type: cell-based
# Method in brief: as §1
# [7] = test system: Corynebacterium ATCC 7715; assay type: cell-based
# Method in brief: as §1
# [8] = test system: Enterococcus ATCC 29212; assay type: cell-based
# Method in brief: as §1
# [9] = test system: Escherichia coli ATCC 25922; assay type: cell-based
# Method in brief: as §1
# [10] = test system: Klebsiella pneumoniae ATCC 700603; assay type: cell-based
# Method in brief: as §1
# [11] = test system: Pseudomonas aeruginosa ATCC 27853; assay type: cell-based
# Method in brief: as §1
# [12] = test system: Salmonella typhimurium ATCC 14028; assay type: cell-based
# Method in brief: as §1
# [13] = test system: Serratia marcescens ATCC 29021; assay type: cell-based
# Method in brief: as §1
# [14] = test system: Staphylococcus aureus ATCC 25923; assay type: cell-based
# Method in brief: as §1
# [15] = test system: Trichophyton ATCC MYA-4438; assay type: cell-based
# Method in brief: as §1
# [16] = test system: Methicillin-resistant Staphylococcus aureus (MRSA); assay type: cell-based; conditions: Methicillin-resistant
# Method in brief: (§2)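 Peptides were serially diluted twofold following CLSI susceptibility standards, clinical resistant bacteria were exposed, and the MIC was recorded; five parallel repeats.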
# [17] = test system: carbapenem-resistant Escherichia coli (CREC); assay type: cell-based; conditions: carbapenem-resistant (CREC)
# Method in brief: as §2
# [18] = test system: carbapenem-resistant Klebsiella pneumoniae (CRKP); assay type: cell-based; conditions: carbapenem-resistant (CRKP)
# Method in brief: as §2
# [19] = test system: carbapenem-resistant Pseudomonas aeruginosa (CRPA); assay type: cell-based; conditions: carbapenem-resistant (CRPA)
# Method in brief: as §2
# [20] = test system: vancomycin-resistant Enterococcus (VRE); assay type: cell-based
# Method in brief: as §2
# [21] = test system: Staphylococcus aureus (NRS 384); conditions: NRS 384, 3 h
# Description: Trypsin (250 U/mg, pH=8.0) and AMPs (LV-1 to LV-30) were mixed in a ratio of 1:10 (w/w) and added to a reaction buffer (0.2 M sodium phosphate, 1 mM CaCl2), pH 7.5), and then incubated at 37° C. for 3 h.
# [22] = test system: Pseudomonas aeruginosa ATCC 27853; assay: Injectable formulations on mice infected with peritonitis; assay type: in vivo, ICR mice; conditions: twice a day for 3 days; for Number of mice that died on each day after infection: day 1 / Number of mice that died on each day after infection: day 2 / Number of mice that died on each day after infection: day 3 / Number of mice that died on each day after infection: day 4 / Number of mice that died on each day after infection: day 5 / Average survival times (Days): n = 10; for Average survival times (Days): observed for 14 d
# Method in brief: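 ICR mice of both sexes (10 per group) infected intraperitoneally with 0.2 mL P. aeruginosa ATCC 27853 at 1×10^9 CFU/mL. Injectable formulations dosed by body weight via tail vein twice daily for 3 days; deaths and survival time recorded over 14 d.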
# [23] = Serum stability assay (residual level by RP-HPLC); conditions: human
smiles,measurement,setting,value
CC(=O)N[C@H](CCCNC(=N)N)C(=O)N[C@H](CCCNC(=N)N)C(=O)N[C@H](CC(C)C)C(=O)N[C@H](CC(C)C)C(=O)N[C@H](Cc1ccc2ccccc2c1)C(=O)N[C@H](CCCCN)C(=O)N[C@H](CC(C)C)C(=O)N[C@H](CCCCN)C(=O)N[C@H](Cc1ccc2ccccc2c1)C(=O)N[C@H](CCCCN)C(=O)N[C@H](CCCNC(=N)N)C(N)=O [LV-24] (Ac-[dR][dR][dL][dL][d2Nal][dK][dL][dK][d2Nal][dK][dR]-NH2),MIC Bacillus subtilis ATCC 6633,[1],2 µg/mL
same,MIC Candida albicans ATCC MYA-2876,[2],8 µg/mL
same,MIC Candida glabrata ATCC 15126,[3],4 µg/mL
same,MIC Candida krusei ATCC 6258,[4],8 µg/mL
same,MIC Candida tropicalis ATCC 750,[5],8 µg/mL
same,MIC Candida utilis ATCC 9950,[6],8 µg/mL
same,MIC Corynebacterium ATCC 7715,[7],4 µg/mL
same,MIC Enterococcus ATCC 29212,[8],4 µg/mL
same,MIC Escherichia coli ATCC 25922,[9],1 µg/mL
same,MIC Klebsiella pneumoniae ATCC 700603,[10],4 µg/mL
same,MIC Pseudomonas aeruginosa ATCC 27853,[11],2 µg/mL
same,MIC Salmonella typhimurium ATCC 14028,[12],1 µg/mL
same,MIC Serratia marcescens ATCC 29021,[13],2 µg/mL
same,MIC Staphylococcus aureus ATCC 25923,[14],1 µg/mL
same,MIC Trichophyton ATCC MYA-4438,[15],4 µg/mL
same,MIC MRSA,[16],4 µg/mL
same,MIC CREC,[17],8 µg/mL
same,MIC CRKP,[18],4 µg/mL
same,MIC CRPA,[19],8 µg/mL
same,MIC VRE,[20],2 µg/mL
same,Trypsin MIC,[21],1 µg/mL
same,Number of mice that died on each day after infection: day 1,[22]; 1 mg/kg via tail vein,1 Mouse
same,Number of mice that died on each day after infection: day 2,[22]; 1 mg/kg via tail vein,2 Mouse
same,Number of mice that died on each day after infection: day 3,[22]; 1 mg/kg via tail vein,0 Mouse
same,Number of mice that died on each day after infection: day 4,[22]; 1 mg/kg via tail vein,0 Mouse
same,Number of mice that died on each day after infection: day 5,[22]; 1 mg/kg via tail vein,1 Mouse
same,Average survival times (Days),[22]; 1 mg/kg via tail vein,9.4*** Days
same,"remaining at 12 h, 0.91 mg/mL",[23],98.3%
"CC(=O)N[C@H](CCCCN)C(=O)N[C@H](CCCCN)C(=O)N[C@H](CC(C)C)C(=O)N[C@H](CC(C)C)C(=O)N[C@H](Cc1ccc(F)c(F)c1)C(=O)N[C@H](CCCNC(=N)N)C(=O)N[C@H](CC(C)C)C(=O)N[C@H](CCCCN)C(=O)N[C@H](Cc1ccc(F)c(F)c1)C(=O)N[C@H](CCCNC(=N)N)C(=O)N[C@H](CCCCN)C(N)=O [LV-25] (Ac-[dK][dK][dL][dL][dPhe(3,4-F2)][dR][dL][dK][dPhe(3,4-F2)][dR][dK]-NH2)",MIC Bacillus subtilis ATCC 6633,[1],8 µg/mL
same,MIC Candida albicans ATCC MYA-2876,[2],8 µg/mL
same,MIC Candida glabrata ATCC 15126,[3],8 µg/mL
same,MIC Candida krusei ATCC 6258,[4],8 µg/mL
same,MIC Candida tropicalis ATCC 750,[5],8 µg/mL
same,MIC Candida utilis ATCC 9950,[6],8 µg/mL
same,MIC Corynebacterium ATCC 7715,[7],2 µg/mL
same,MIC Enterococcus ATCC 29212,[8],2 µg/mL
same,MIC Escherichia coli ATCC 25922,[9],1 µg/mL
same,MIC Klebsiella pneumoniae ATCC 700603,[10],8 µg/mL
same,MIC Pseudomonas aeruginosa ATCC 27853,[11],1 µg/mL
same,MIC Salmonella typhimurium ATCC 14028,[12],1 µg/mL
same,MIC Serratia marcescens ATCC 29021,[13],4 µg/mL
same,MIC Staphylococcus aureus ATCC 25923,[14],2 µg/mL
same,MIC Trichophyton ATCC MYA-4438,[15],8 µg/mL
same,MIC MRSA,[16],2 µg/mL
same,MIC CREC,[17],4 µg/mL
same,MIC CRKP,[18],8 µg/mL
same,MIC CRPA,[19],4 µg/mL
same,MIC VRE,[20],8 µg/mL
same,Trypsin MIC,[21],1 µg/mL
same,Number of mice that died on each day after infection: day 1,[22]; 0.2 mg/kg via tail vein,2 Mouse
same,Number of mice that died on each day after infection: day 2,[22]; 0.2 mg/kg via tail vein,1 Mouse
same,Number of mice that died on each day after infection: day 3,[22]; 0.2 mg/kg via tail vein,1 Mouse
same,Number of mice that died on each day after infection: day 4,[22]; 0.2 mg/kg via tail vein,1 Mouse
same,Number of mice that died on each day after infection: day 5,[22]; 0.2 mg/kg via tail vein,1 Mouse
same,Average survival times (Days),[22]; 0.2 mg/kg via tail vein,7.2** Days
same,Number of mice that died on each day after infection: day 1,[22]; 1 mg/kg via tail vein,0 Mouse
same,Number of mice that died on each day after infection: day 2,[22]; 1 mg/kg via tail vein,1 Mouse
same,Number of mice that died on each day after infection: day 3,[22]; 1 mg/kg via tail vein,1 Mouse
same,Number of mice that died on each day after infection: day 4,[22]; 1 mg/kg via tail vein,0 Mouse
same,Number of mice that died on each day after infection: day 5,[22]; 1 mg/kg via tail vein,1 Mouse
same,Average survival times (Days),[22]; 1 mg/kg via tail vein,10.8**** Days
same,Number of mice that died on each day after infection: day 1,[22]; 5 mg/kg via tail vein,0 Mouse
same,Number of mice that died on each day after infection: day 2,[22]; 5 mg/kg via tail vein,3 Mouse
same,Number of mice that died on each day after infection: day 3,[22]; 5 mg/kg via tail vein,0 Mouse
same,Number of mice that died on each day after infection: day 4,[22]; 5 mg/kg via tail vein,0 Mouse
same,Number of mice that died on each day after infection: day 5,[22]; 5 mg/kg via tail vein,0 Mouse
same,Average survival times (Days),[22]; 5 mg/kg via tail vein,10.4**** Days
same,survival time of mice infected with Pseudomonas aeruginosa,"[22]; tail vein, observed 14 d",superior to those of the Levofloxacin group
same,"remaining at 12 h, 0.91 mg/mL",[23],97.8%

# From patent publication US20250304620A1, “ANTIMICROBIAL PEPTIDE AND APPLICATION THEREOF” (priority 2023, published 2025)
